{"source": "patent US20260263644A1", "about": "“USE OF POSITRON MYOCARDIAL FATTY ACID METABOLISM IMAGING AGENT AND POSITRON 18F-FDG MYOCARDIAL GLUCOSE IMAGING AGENT IN PET COMBINED IMAGING” (priority 2023, published 2026)", "key": {"[1]": {"test_system": "anterior wall myocardium with chronic myocardial infarction", "assay": "Combined 18F-FDG and XTR003 PET myocardial metabolic imaging under fasting in the chronic myocardial infarction pig model", "format": "in vivo, Bama miniature pig", "conditions": "for uptake in the myocardial infarction area (PET myocardial metabolic image): 18F-FDG 1mCi first", "method": "Each experiment used a Bama miniature pig approximately one year old, and the experiment was repeated three times. Taking the second of the three experiments as an example: the piglet weighed approximately 10 kg. A constrictive ring was placed at the site of the left anterior descending coronary artery to gradually induce chronic myocardial infarction in the anterior wall myocardium. Four weeks later, for comparative purposes, a ^99mTc-Sestamibi SPECT myocardial perfusion imaging was performed in the morning (this imaging is the gold standard for assessing viable and scarred myocardium in the infarcted area and was used in this study as a reference for comparing PET imaging results). In the afternoon, a one-day protocol for combined ^18F-FDG and XTR003 PET imaging was performed (with at least 2-hour interval from the SPECT conducted in the morning, during which fasting was maintained). ^18F-FDG PET imaging was performed first, followed by XTR003 PET imaging. The injection doses of the above two agents were 1mCi and 2.5mCi, respectively. XTR003 was injected 1 hour after the ^18F-FDG injection, followed immediately by PET imaging. Each experiment used a Bama miniature pig about one year old, and the experiment was repeated three times. Taking the second of the three experiments as an example: the piglet weighed approximately 11 kg. A constriction ring was placed at the site of the left anterior descending coronary artery to gradually induce chronic myocardial infarction in the anterior wall myocardium. Three weeks later, for comparative purposes, a 99mTc-Sestamibi SPECT myocardial perfusion imaging was performed in the morning. In the afternoon, a one-day protocol combining ^18F-FDG and XTR003 PET imaging was performed, ^18F-FDG PET imaging was performed first, followed by XTR003 PET imaging. The injection doses of the above two agents were 1mCi and 3.1mCi, respectively. Among them, XTR003 was injected 1 hour after the ^18F-FDG injection, followed immediately by PET imaging. A disease animal model was constructed as described in Example 1. After myocardial perfusion imaging, “a one-day protocol combining ^18F-FDG PET and XTR003 PET imaging” was performed, wherein XTR003 was injected one hour after the injection of ^18F-FDG, followed immediately by PET imaging. The only difference between the Comparative Example and Example 1 is that the injection doses of the above two agents were 1 mCi and 0.25 mCi, respectively. The results of the combined ^18F-FDG and XTR003 PET imaging (also used the second experiment out of three replicates as an example) are shown in FIGS. 3a-3b. In the Figs.: An animal model of the disease was constructed as described in Example 1, differing only in the order of imaging; specifically, XTR003 PET imaging was performed first, followed by ^18F-FDG PET imaging. The injection doses of the two agents were 1 mCi and 3 mCi, respectively. In the Figs.: An animal model of the disease was constructed as described in Example 3. After myocardial perfusion, “a one-day protocol combining XTR003 PET and ^18F-FDG PET imaging” was performed, wherein ^18F-FDG was injected one hour after the injection of XTR003, followed immediately by PET imaging. The only difference between the Comparative Example and Example 3 was that the injection doses of the above two agents were 1 mCi and 0.25 mCi, respectively. In the Figs.: The disease animal model was constructed according to the description of Example 1. The only difference from Example 1 was that after the myocardial perfusion imaging, a “two-day protocol combining ^18F-FDG PET and XTR003 PET imaging” was performed instead of the “one-day protocol”. In the Figs.: An animal model of the disease was constructed as described in Example 1. After myocardial perfusion imaging, a “a one-day protocol combining ^18F-FDG PET and XTR003 PET imaging” was performed, wherein XTR003 was injected one hour after the injection of ^18F-FDG, followed immediately by PET imaging. […]"}, "[2]": {"test_system": "normal myocardium", "assay": "Separate PET imaging with a single imaging agent, without combination", "format": "in vivo, Bama miniature pig", "conditions": "Comparative Example 3; fasting; each agent administered separately, not in combination; FIGS. 7a, 7b", "method": "Each experiment was performed using a Bama miniature pig of about one year old, and the experiment was repeated three times; taking the second experiment of the three experiments as an example: the piglet weighed about 10 kg, and the two imaging agents were administered separately for imaging rather than in combination. The results of separate PET imaging with ^18F-FDG and XTR003 are shown in FIGS. 7a and 7b, respectively."}}}
{"compound": "CCCCCCCCC([18F])CCCCC1CC1CC(=O)O", "note": "(stereo not shown) [XTR003]", "values": [{"measurement": "image quality of myocardial metabolic images", "setting": "[1]; Comparative Example 1, one-day protocol, 18F-FDG 1 mCi first, then XTR003 0.25 mCi, FIGS. 3a-3b", "result": "excessive image noise"}, {"measurement": "image quality of myocardial metabolic images", "setting": "[1]; Comparative Example 2, one-day protocol, XTR003 1 mCi first, then 18F-FDG 0.25 mCi, FIGS. 5a-5b", "result": "normal image quality"}, {"measurement": "uptake in the myocardial infarction area (PET myocardial metabolic image)", "setting": "[1]; Example 1, one-day protocol, XTR003 2.5mCi injected 1 hour later, FIGS. 1b-1c", "result": "moderate uptake"}, {"measurement": "uptake in the myocardial infarction area (PET myocardial metabolic image)", "setting": "[1]; Example 2, one-day protocol, XTR003 3.1mCi injected 1 hour later, FIGS. 2b-2c", "result": "no XTR003 uptake"}, {"measurement": "image quality of myocardial metabolic images", "setting": "[1]; Example 3, one-day protocol, XTR003 1 mCi first, then 18F-FDG 3 mCi, FIGS. 4a-4b", "result": "normal image quality"}, {"measurement": "image quality of myocardial metabolic images", "setting": "[1]; Example 4, two-day protocol, FIGS. 6a-6b", "result": "normal image quality"}, {"measurement": "visibility of myocardial metabolic images", "setting": "[2]", "result": "can show normal image"}]}
